Data on 1 molecule can be found in ChEMBL document CHEMBL5500339, “4-Hydroxy-2-pyridone derivatives with antitumor activity produced by mangrove endophytic fungus Talaromyces sp. CY-3” (Eur J Med Chem, 2024).

Active and inactive are the calls of the source. No cut-off for these calls is given here.

In general, IC50 refers to the concentration at which inhibition is half-maximal.

Test [1] in a line: Cytotoxicity against mouse Lewis lung carcinoma cell line assessed as reduction in cell viability incubated for 48 hrs by MTT assay. It counts as functional, cell-based.
For test [2], the system named is A549. The test can be described thus: Cytotoxicity against human A549 cells assessed as reduction in cell viability incubated for 48 hrs by MTT assay. It counts as functional, cell-based. Conditions: A549, 48 h.
The subject of test [3] is NCI-H1703. Briefly: Induction of cell cycle arrest in human NCI-H1703 cells assessed as upregulation of p21 protein expression incubated for 24 hrs by Western blotting analysis. The format is functional, cell-based. (In general: A western blot detects proteins with antibodies after separation by electrophoresis.)
For test [4], the system named is A549. The test can be described thus: Induction of cell cycle arrest in human A549 cells assessed as downregulation of CDK4 protein expression incubated for 24 hrs by Western blotting analysis. It counts as functional, cell-based.
The subject of test [5] is NCI-H1703. Briefly: Induction of cell cycle arrest in human NCI-H1703 cells assessed as accumulation of cells at S phase at 5 uM incubated for 24 hrs by flow cytometric analysis (reference value: 28.06 %). The format is functional.
Test [6] deals with NCI-H1703. The test can be described thus: Induction of cell cycle arrest in human NCI-H1703 cells assessed as downregulation of Rb phosphorylation at Ser807/811 residue at 5 uM incubated for 24 hrs by Western blotting analysis. It counts as functional, cell-based.
Test [7] relates to A549. The test can be described thus: Induction of cell cycle arrest in human A549 cells assessed as downregulation of total Rb protein level at 10 uM incubated for 24 hrs by Western blotting analysis. It counts as functional, cell-based.
In test [8] the test system is NCI-H1703. The test can be described thus: Induction of cell cycle arrest in human NCI-H1703 cells assessed as accumulation of cells at G2/M phase at 5 uM incubated for 24 hrs by flow cytometric analysis (reference value: 29.88 %). It counts as functional. (In general: A flow cytometer gives signals particle by particle.)
The subject of test [9] is NCI-H1703. Briefly: Antiproliferative activity against human NCI-H1703 cells assessed as inhibition of cell growth at 10 uM incubated for 24 hrs by MTT assay. The format is functional, cell-based. (In general: Formazan colour is commonly taken as a measure of viable cells.)
In test [10] the test system is A549. The test can be described thus: Induction of cell cycle arrest in human A549 cells assessed as accumulation of cells at G1/G0 phase at 10 uM incubated for 24 hrs by flow cytometric analysis (reference value: 51.49 %). The format is functional.
In test [11] the test system is NCI-H1703. Briefly: Inhibition of colony formation in human NCI-H1703 cells at 5 uM incubated for 7 days by crystal violet staining analysis. The format is functional, cell-based. To be noted: time 7.0 day.
For test [12], the system named is A549. The test can be described thus: Induction of cell cycle arrest in human A549 cells assessed as upregulation of p53 protein expression incubated for 24 hrs by Western blotting analysis. It counts as functional, cell-based.
For a further test, the system named is MDA-MB-435. Briefly: Cytotoxicity against human MDA-MB-435 cells assessed as reduction in cell viability incubated for 48 hrs by MTT assay. It counts as functional, cell-based. Conditions: MDA-MB-435, 48 h.
Test [13] has as its system NCI-H1703. The test can be described thus: Induction of cell cycle arrest in human NCI-H1703 cells assessed as downregulation of CDK6 protein expression incubated for 24 hrs by Western blotting analysis. It counts as functional, cell-based.

Take `C/C=C/[C@@H]1[C@H]2C[C@@H](C)CC[C@@H]2C(C)=C[C@H]1C(=O)c1c(O)c(-c2ccc(O)cc2)c[nH]c1=O` [ILICICOLIN H]: the 50% inhibitory concentration (IC50) in test [1] was determined as 5.78 µM; in the test with A549 [2], 7.01 µM; in the test on MDA-MB-435, 6.34 µM. Further, the Activity result in the test on NCI-H1703 [3] is “Dose-Dependent Effect”; with A549 [4], “Dose-Dependent Effect”; in the test with NCI-H1703 [5], 23.26%; in the test on NCI-H1703 [8], 26.61%; in the test on A549 [10] it was 64.26%; in the test with A549 [12], “Dose-Dependent Effect”. Also, in the test on NCI-H1703 [13], the Activity entry was “Dose-Dependent Effect”. For the same molecule, the result in the test with NCI-H1703 [6] and in the test on NCI-H1703 [9] was Active. In the test on A549 [7], the result was inactive. For the same molecule, the inhibition entry with NCI-H1703 [11] is “Active”.
